The values that follow come from US20240417773A1 (priority 2022, published 2024).

Test [1] concerns spore strips produced by Xinhua Mesa®Strip. Conditions: 50° C., 1.74 mg/L; for Observation result: excitation 365 nm.
Experimental: This embodiment selects six spore strips produced by Xinhua Mesa®Strip, which are divided into three groups and each group has two strips. […] A treatment for 0 sec at 50° C. means that no treatment is performed, and is a control group; a treatment for 20 sec at 50° C. simulates a condition of incomplete sterilization; and treatment for 60 sec at 50° C. simulates a condition of successful sterilization where all the spores are supposed to be skilled theoretically. An exposure position of the indicator is located at a cold spot of a sterilization device. A sample subjected to the sterilization treatment is transferred onto a bechtop. Bacteria strips included in the biological indicators in the three groups after the sterilization treatment are taken out by means of sterilized tweezers, put in a sterile centrifuge tube, added with an appropriate amount of sterile recovered liquid (0.1% polysorbate 80, and 0.03 M phosphate buffer liquid with pH being 7.2), fully oscillated and crushed. Afterwards, the centrifuge tube is put in an ice-bath for cooling.
(§1) One drop of the liquid medium (30 g/L agar and 15 g/L tryptic soy broth) subjected to high-temperature sterilization is dropwise added onto an object slide, after this drop of the liquid medium is solidified, one drop of the 4-MUG with a concentration being 210 mg/L is dropwise added onto the solid medium, and a moment later, the 4-MUG fully infiltrates into the solid medium.
(§2) One drop of the spore suspension (including the thermal-damaged spores) is dropwise added onto the solid medium.
The number and sizes of fluorescent spots are observed under the observation system. The observation system is composed of four parts: 1) a stereoscopic microscope (a brand model may be: Nikon SMZ800); 2) a time gating camera (a brand model may be: Photonics Research Systems, Salford, UK) mounted on the above stereoscopic microscope; 3) a xenon flash lamp (a brand model may be: PerkinElmer, Waltham, MA) forming a 45° angle relative to a sample; and 4) a temperature-controlled microscope object slide stand (a brand model may be: Thermal).
Parameters set for the observation system are as follows: the xenon flash lamp has an excitation wavelength of 365 nm and an excitation slit width of 10 nm. Observed by the stereoscopic microscope, an emission wavelength is 544 nm, and an emission slit is 10 nm.
Test [2] concerns spores of the Bacillus atrophaeus. Conditions: 50° C., 1.74 mg/L; for Observation result: excitation 365 nm.
Experimental: A bacterial carrier on each indicator includes about 106 spores of the Bacillus atrophaeus. The six indicators are divided into three groups, each of which has two indicators. […] A treatment for 0 sec at 50° C. means that no treatment is performed, and is a control group; a treatment for 20 sec at 50° C. simulates a condition of incomplete sterilization; and treatment for 60 sec at 50° C. simulates a condition of successful sterilization where all the spores are supposed to be skilled theoretically. An exposure position of the indicator is located at a cold spot of a sterilization device. A sample subjected to the sterilization treatment is transferred onto a bechtop. Bacteria strips included in the biological indicators in the three groups after the sterilization treatment are taken out by means of sterilized tweezers, put in a sterile centrifuge tube, added with an appropriate quantity of sterile recovered liquid (0.1% polysorbate 80, and 0.03 M phosphate buffer liquid with pH being 7.2), fully oscillated and crushed. Afterwards, the centrifuge tube is put in an ice-bath for cooling.
Then, a sample in the centrifuge tube is subjected to centrifugation (a centrifugal force being 2000×g, a temperature being 4° C. and a centrifugation duration being 20 min), an obtained supernatant passes through a 10 μm millipore filter (a spore diameter is 1 μm to 2 μm, so in order to make the spores pass through the filter and the bacteria strip slags are blocked, a filter of 2 μm or above is needed), so as to obtain filtrate.
An appropriate amount of sterile recovered liquid is added into filtered slags (a main component is a crushed bacteria strip fiber) obtained after the above centrifugal filtration, after oscillating and shaking well, the above centrifugal filtration process is repeated, filtrate including thermal-damaged spores is further recovered, repetition is performed for 2 to 3 times like this, and the filtrate obtained by each centrifugal filtration is gathered as the spore suspension.
as §1, §2
The number and sizes of fluorescent spots are observed under the observation system. […]

Like-named read-outs stand apart in the source and are kept apart here.

`OO` [hydrogen peroxide]: the Conclusion result in test [1] (20 sec) is reported as “Incomplete”; in test [1] (60 sec), “Complete”; in test [2] (20 sec) it was “Incomplete”; in test [2] (60 sec), “Complete”. The Observation result in test [1] (20 sec) is listed as “A certain quantity of scattered”; in test [1] (60 sec), “No fluorescent spot”; in test [2] (20 sec), “A certain quantity of scattered”; in test [2] (60 sec) it was “No fluorescent spot”.
